These results are taken from publication PMC6273072, “Identification of a New Morpholine Scaffold as a P2Y12 Receptor Antagonist” (Molecules, 2016).

Data set [1] has as its system ADP-induced platelet aggregation. In words: Inhibition of ADP-induced platelet aggregation, 96-well light transmission aggregometry. Format: cell-based, human. The conditions noted are these: for IC50: 20 μM ADP; for effect of pre-incubation / time on inhibition of ADP-induced platelet aggregation, in words: data not shown. As to the method:
Platelets were isolated from 400 mL whole blood containing 56 mL of CPDA-1 anticoagulant purchased from Chung-Nam Blood Center (Daejeon, South Korea) by centrifugation at 260× g for 5 min. The resultant platelet-rich plasma was centrifuged at 370× g for 6 min, and the platelet pellet (10^9/mL) was resuspended in 45 mL plasma and stabilized by agitation for 1 h at 22 °C in blood reservoir. The product was used for experiments within 24 h. Platelet concentrate (PC) was transferred to a new 50-mL Falcon tube and the number of platelets was counted using the ABC Vet blood counter (ABX Diagnostics, Montpellier, France). A 30-mL volume of PCs from the same donor was centrifuged at 1500× g for 10 min at room temperature to obtain platelet-poor plasma (PPP). The platelet count was adjusted to 3–4 × 10^8/mL by diluting with PPP.
Inhibition of ADP-induced aggregation was assessed in a Costar 96-well flat-bottom plate (Sigma-Aldrich, St. Louis, MO, USA) at room temperature. A 188-µL volume of the diluted platelet was added to each well of the plate along with 2 µL of test compound dissolved in dimethyl sulfoxide (DMSO). The reagents were mixed by placing the plate on a shaker at 1050 rpm for 1 min. A 10-µL volume of 400 μM ADP (final concentration: 20 μM) was added to the wells, and after additional shaking at room temperature for 3 min, the absorption of the samples was read at 595 nm on a Softmax microplate reader (Molecular Devices, Sunnyvale, CA, USA). A dose-response curve was generated using serial dilutions of ADP by adding the vehicle DMSO instead of antagonists in order to calculate the half-maximal effective concentration (EC50) of ADP. Inhibition of aggregation was determined as the increase in absorption at 595 nm after 3 min of incubation relative to absorption values of control preparations (0 and 20 μM ADP without antagonists). Sigmoidal dose-response curves and half-maximal inhibitory concentration (IC50) were derived by non-linear regression analysis using Prism 5.01 software (GraphPad, San Diego, CA, USA).

For data set [2], the target named is T1, rhP2Y12 receptor (Homo sapiens, UniProt Q9H244).
T1 construct: expressed in transfected cells
Nature of the data set: rhP2Y12 receptor binding assay with [3H]-2-MeSADP (HEK293T membranes). As to conditions: for IC50: 1 nM [3H]-2-MeSADP, HEK293T-rhP2Y12 membranes. Here is the method:
(§1) The pDisplay-human P2Y12 DNA clone and pDisplay-human P2Y13 DNA clone were stably expressed in HEK293T and COS-7 cells, respectively; recombinant human (rh)P2Y12- and rhP2Y13-expressing cells were resuspended in hypotonic buffer consisting of 10 mM HEPES, 10 mM NaCl, 1 mM EDTA, 1 mM EGTA (pH 7.4), and protease inhibitor cocktail. Following 15-min incubation on ice, cells were homogenized on ice using a glass/teflon homogenizer (1000 rpm, 10 strokes). The homogenate was centrifuged at 500 × g for 15 min and the supernatant was centrifuged at 100,000× g for 30 min. The membrane pellet was adjusted to 1 mg/mL with membrane buffer consisting of 10 mM HEPES, 5 mM KCl, and 130 mM NaCl (pH 7.4) and stored at −80 °C. A 100-μL volume of 0.2 mg/mL membrane protein was added to each well of a 96-well plate along with 25 μL of test compound and [3H]2-MeSADP or [3H]ADP for a total reaction volume of 0.15 mL/well. The plate was incubated for 1 h at room temperature. The reaction was terminated by passing the solution through a GF/B filter presoaked with 0.1% polyethyleneimine using a 96-well cell harvester. […] Radioactivity of the P2Y12 receptor or P2Y13 receptor bound to the membrane were measured using a scintillation TopCount instrument (PerkinElmer, Boston, MA, USA). […] Percent inhibition of binding was calculated as follows: (100—(specific binding in the presence of test material/specific binding in the absence of test material × 100)).

Data set [3] concerns the target T1, rhP2Y12 receptor. Nature of the data set: rhP2Y12 receptor binding assay with [3H]ADP (HEK293T membranes). As to conditions: for IC50: 3 nM [3H]ADP, HEK293T-rhP2Y12 membranes. Here is the method: as §1
In data set [4] the target is T2, human P2Y1 receptor (Homo sapiens, UniProt P47900).
T2 construct: expressed in transfected cells
Nature of the data set: P2Y1-mediated Ca2+ mobilization in NIH3T3-P2Y1 + Gq cells (FLIPR). In kind it is cell-based. As to conditions: for inhibitory effect at P2Y1 receptor, in words: up to 100 μM. Here is the method: Intracellular Ca^2+ mobilization was analyzed using the FLIPR 5 assay kit as previously described. Briefly, pDisplay-human P2Y1 DNA clone and pcDNA-Gq DNA clone were stably expressed in NIH3T3 cells. NIH3T3-P2Y1 + Gq cells (3 × 10^5 cells/mL) were seeded in a 96-well plate and allowed to adhere overnight. An equal volume of FLIPR 5 assay kit loading buffer (Molecular Devices) was added directly to the culture medium for 1 h at room temperature, followed by 20-min incubation after adding the test compounds. Changes in intracellular Ca^2+ were measured with a FlexStation II scanning fluorometer (Molecular Devices).

The target of data set [5] is T3, rhP2Y13 receptor (Homo sapiens, UniProt Q9BPV8).
T3 construct: expressed in transfected cells
T3 sequence (Q9BPV8 1-354): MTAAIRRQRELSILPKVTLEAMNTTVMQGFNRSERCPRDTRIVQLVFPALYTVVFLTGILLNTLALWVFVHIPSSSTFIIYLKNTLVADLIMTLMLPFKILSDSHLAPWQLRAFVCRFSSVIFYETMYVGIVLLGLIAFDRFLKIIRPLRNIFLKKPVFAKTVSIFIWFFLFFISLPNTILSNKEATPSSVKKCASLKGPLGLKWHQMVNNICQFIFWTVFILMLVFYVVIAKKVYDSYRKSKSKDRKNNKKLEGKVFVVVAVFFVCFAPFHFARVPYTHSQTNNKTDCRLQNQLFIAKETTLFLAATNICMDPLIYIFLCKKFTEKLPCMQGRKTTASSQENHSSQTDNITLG
In words: rhP2Y13 receptor [3H]2-MeSADP binding assay (COS-7 membranes). As to the method: as §1

On the set-up of data set [6]: method as in PMID 25065553. As to conditions: side effect of ticagrelor; cited from earlier work.
Setting [7] is: read-out: IC50 vs. [3H]-2-MeSADP.
[8] abbreviates: Homo sapiens, Platelet, 96-well plate.

Where “and” joins values, the source holds several entries; their conditions need not be identical. Equal entries are not always repeated.

T1 sequence (Q9H244 whole entry): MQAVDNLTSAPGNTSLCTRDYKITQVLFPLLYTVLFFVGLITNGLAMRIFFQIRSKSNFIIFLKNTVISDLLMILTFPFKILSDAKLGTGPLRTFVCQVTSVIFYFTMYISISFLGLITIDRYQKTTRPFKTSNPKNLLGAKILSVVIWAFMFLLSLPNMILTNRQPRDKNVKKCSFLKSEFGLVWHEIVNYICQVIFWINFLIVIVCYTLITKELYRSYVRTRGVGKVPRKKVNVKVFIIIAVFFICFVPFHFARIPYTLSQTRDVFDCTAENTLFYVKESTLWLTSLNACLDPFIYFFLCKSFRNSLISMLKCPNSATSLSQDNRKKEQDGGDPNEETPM
T2 sequence (P47900 whole entry): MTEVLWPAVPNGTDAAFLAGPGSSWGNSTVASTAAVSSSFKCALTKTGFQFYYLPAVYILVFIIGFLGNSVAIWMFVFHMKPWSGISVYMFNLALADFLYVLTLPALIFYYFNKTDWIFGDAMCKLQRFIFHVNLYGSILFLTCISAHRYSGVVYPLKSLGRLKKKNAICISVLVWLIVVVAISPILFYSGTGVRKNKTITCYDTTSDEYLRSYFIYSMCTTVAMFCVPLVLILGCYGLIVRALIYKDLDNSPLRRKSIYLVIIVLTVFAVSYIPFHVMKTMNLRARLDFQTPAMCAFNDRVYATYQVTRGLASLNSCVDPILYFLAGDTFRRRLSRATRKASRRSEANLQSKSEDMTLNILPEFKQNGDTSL

For `Nc1ncnc2c1ncn2[C@@H]1O[C@H](COP(=O)(O)OP(=O)(O)O)[C@@H](O)[C@H]1O` [ADP, Adenosine 5′-diphosphate, reference compound], in data set [1] (Homo sapiens, Platelet, 96-well plate, read-out: EC50 of ADP, concentration-dependent platelet stimulation), the EC50 was determined as 4.2 µM. Moreover, the IC50 worked out at 24.8 ± 2.09 µM in data set [2] (setting [7]) and 0.19 ± 0.1 µM in data set [3] (read-out: IC50 vs. [3H]ADP). Besides, the “fold higher potency of ADP than 2-MeSADP in competing with [3H]ADP” value in data set [3] came out at 90 fold.
Consider `CCCSc1nc(N[C@@H]2C[C@H]2c2ccc(F)c(F)c2)c2nnn([C@@H]3C[C@H](OCCO)[C@@H](O)[C@H]3O)c2n1` [Ticagrelor, reference compound], for which the values for the IC50 in data set [1] (setting [8]), in data set [2] (IC50 vs. [3H]-2-MeSADP) and in data set [3] (IC50 vs. [3H]ADP) were 0.32 ± 0.02 µM, 0.04 ± 0.02 µM and 8.4 ± 3.05 µM, respectively. The “effect of pre-incubation / time on inhibition of ADP-induced platelet aggregation, in words” value in data set [1] is “time-dependent manner”. For the same molecule, in data set [3], the “fold lower potency vs [3H]ADP than vs [3H]2-MeSADP” value turned out to be 210 fold. The “inhibitory effect at P2Y1 receptor, in words” value (“inhibitory effect” for short) in data set [4] (100 nM MRS2365) is “did not exert an inhibitory effect”. Besides, the “selectivity, rhP2Y13 in comparison to rhP2Y12” value in data set [5] ([3H]2-MeS-ADP binding) is > 1000 fold. In addition, the “shortness of breath (dyspnea) incidence” value in data set [6] is reported as 14%.
With `CNc1ncnc2c1ncn2[C@H]1C[C@H](OP(=O)(O)O)[C@@H](COP(=O)(O)O)O1` [MRS2179, reference compound], the IC50 in data set [1] (96-well plate) was 1.1 ± 0.01 µM; in data set [4] (100 nM MRS2365, read-out: IC50, block of MRS2365 action at P2Y1 receptor), 0.66 µM.
As to `Nc1ncnc2c1ncn2[C@@H]1O[C@H](COP(=O)(O)OP(=O)(O)O)[C@@H](O)[C@H]1O` [[^3H]ADP, reference compound], the Kd in data set [3] ([3H]ADP saturation binding, read-out: Kd of radioligand at rhP2Y12 (saturation, Scatchard)) stood at 0.0097 µM.
Take `COc1cccc(-n2nc(C#N)c(Cl)cc2=O)c1` [Compound A, 4-chloro-1-(3-methoxyphenyl)-6-oxopyridazine-3-carbonitrile]: the figures for the IC50 in data set [1] (setting [8]), in data set [2] (setting [7]) and in data set [3] (read-out: IC50 vs. [3H]ADP) were 8.04 ± 0.51 µM, > 30 µM and > 30 µM, respectively.
Regarding `CSc1nc(N)c2ncn([C@H]3[C@H](O)[C@H](O)[C@]4(COP(=O)(O)OP(=O)(O)O)C[C@H]34)c2n1` [MRS2365], the EC50 in data set [4] (Ca2+ mobilization, NIH3T3-P2Y1 + Gq cells, read-out: EC50 for P2Y1 receptor activation) stood at 0.03 µM.
Consider `N#Cc1nccnc1S(=O)(=O)c1cccs1` [Compound F, 3-thiophen-2-ylsulfonylpyrazine-2-carbonitrile], for which the IC50 in data set [1] (setting [8]) is 9.35 ± 2.19 µM; in data set [2] (setting [7]) it was > 30 µM; in data set [3] (read-out: IC50 vs. [3H]ADP) it was > 30 µM. In addition, in data set [2], the “inhibition of [3H]-2-MeSADP binding to rhP2Y12, in words” value is on record as “slightly inhibited”. Besides, the “inhibition of [3H]ADP binding to rhP2Y12, in words” value in data set [3] is given as “slightly inhibited”.
Molecule “2-methylthioadenosine 5′-monophosphate [Compound 2-MeSAMP, reference compound]” yielded an IC50 in data set [1] (96-well plate) of 1.09 ± 0.16 µM. Also, in data set [4] (100 nM MRS2365), the “inhibitory effect” value is listed as “did not exert an inhibitory effect”.
In the case of `Cn1sc(=O)c2cc(S(=O)(=O)NC3CC3)ccc21` [Compound B, N-cyclopropyl-1-methyl-3-oxo-2,1-benzothiazole-5-sulfonamide], the half-maximal inhibitory concentration (IC50) in data set [1] (setting [8]) is 9.49 ± 1.15 µM; in data set [2] (setting [7]), > 30 µM; in data set [3] (read-out: IC50 vs. [3H]ADP), > 30 µM.
As for `Cc1nc(N=Nc2cc([N+](=O)[O-])ccc2Cl)c(COP(=O)(O)O)c(C=O)c1O` [MRS2211], the half-inhibitory concentration (IC50) in data set [5] (1 nM [3H]2-MeSADP, read-out: IC50, inhibition of [3H]2-MeS-ADP binding to rhP2Y13) was 9.4 µM.
Turning to `COc1ccc(C(=O)C=CSc2nncn2C)cc1` [Compound D, 1-(4-methoxyphenyl)-3-[(4-methyl-1,2,4-triazol-3-yl)sulfanyl]prop-2-en-1-one], the half-inhibitory concentration (IC50) in data set [1] (setting [8]) is 6.08 ± 0.11 µM; in data set [2] (setting [7]), > 30 µM; in data set [3] (read-out: IC50 vs. [3H]ADP), > 30 µM.
Consider `CN(C)c1ccc(C(c2cc3c(cc2O)OCO3)N2CCOCC2)cc1` (stereo not shown) [Compound E, 6-[(4-dimethylamino-phenyl)-morpholin-4-yl-methyl]-benzo[1,3]dioxol-5-ol], for which the IC50 in data set [1] (setting [8]) was 6.21 ± 0.71 µM; in data set [2] (setting [7]), 15.5 µM; in data set [3] (read-out: IC50 vs. [3H]ADP), 8.3 µM and 8.33 µM. In data set [1], the “effect of pre-incubation / time on inhibition of ADP-induced platelet aggregation, in words” value is given as “did not increase the potency”. In addition, the “fold higher potency vs [3H]ADP than vs [3H]2-MeSADP” value in data set [3] turned out to be 1.9 fold. In addition, the “inhibitory effect” value in data set [4] (100 nM MRS2365) is “did not exert an inhibitory effect”. For the same molecule, in data set [5] (up to 100 μM), the “inhibition of [3H]2-MeS-ADP binding to rhP2Y13, in words” value is reported as “did not inhibit”.
In turn, `Nc1ncnc2c1ncn2[C@@H]1O[C@H](COP(=O)(O)OP(=O)(O)OP(=O)(O)O)[C@@H](O)[C@H]1O` [ATP, Adenosine 5′-triphosphate, reference compound] returned an IC50 in data set [1] (setting [8]) of 2.14 ± 0.51 µM.
In the case of `Cn1ncc(S(=O)(=O)Cc2ccccc2)c(Br)c1=O` [Compound C, 5-benzylsulfonyl-4-bromo-2-methylpyridazin-3-one], the 50% inhibitory concentration (IC50) in data set [1] (setting [8]) is 4.03 ± 0.95 µM; in data set [2] (setting [7]), > 30 µM; in data set [3] (read-out: IC50 vs. [3H]ADP), > 30 µM.
Regarding `CSc1nc(N)c2ncn([C@@H]3O[C@H](COP(=O)(O)OP(=O)(O)O)[C@@H](O)[C@H]3O)c2n1` [Compound 2-MeSADP, reference compound], the IC50 in data set [2] (setting [7]) turned out to be 0.12 ± 0.02 µM; in data set [3] (read-out: IC50 vs. [3H]ADP), 17.2 ± 4.62 µM.
